{"source": "patent US20250000936A1", "about": "“TREATMENT OF GEOGRAPHIC ATROPHY” (Apellis Pharmaceuticals, Inc., priority 2021, published 2025)", "key": {"[1]": {"test_system": "patients with geographic atrophy (GA) secondary to age-related macular degeneration (AMD)", "test": "OAKS Phase 3 study: GA lesion growth in study eye by fundus autofluorescence", "type": "in vivo, human", "details": "for reduction in GA lesion growth from baseline compared to sham: over 24 months; for reduction in lesion growth in the study eye versus the untreated study eye, after adjusting for sham / reduction in lesion growth in the study eye versus the untreated study eye: bilateral GA; for reduction in lesion growth in the study eye versus the untreated study eye, after adjusting for sham / reduction in lesion growth in the study eye versus the untreated study eye / percentage reduction versus sham pooled: 18 months"}, "patients with GA": {"test_system": "patients with GA", "details": "FILLY, month 12, cited from earlier work"}, "[2]": {"test_system": "patients with geographic atrophy (GA) secondary to age-related macular degeneration (AMD)", "test": "DERBY Phase 3 study: safety", "details": "PEOM (every other month)", "procedure": "All randomized subjects returned every month to the clinical site for assessments and additional pegcetacoplan or sham injections according to their randomization scheme until Month 12. From Month 12 onwards, subjects return to the clinical site based on their randomized treatment schedule (monthly or EOM) and follow the treatment regimen and assessments outlined in the Visit Schedule until Month 24. Safety was assessed throughout the study by a number of evaluations including: monitoring of AEs, preinjection and postinjection monitoring, blood and urine samples collected, physical examination, vital signs, and follow-up phone calls. Blood samples were also be collected for anti-therapeutic antibodies, genotyping, and clinical repository (if the subject consented to this portion).\nThe Safety set consisted of all subjects randomized who received at least one injection of pegcetacoplan or sham. Subjects were analyzed according to the actual treatment received. […] This population was used for all safety analyses."}, "[3]": {"details": "post-hoc quartiles of GA lesion growth over 18 months (FIG. 27)"}}, "note": "Values joined by “and” are separate entries in the source; they are usually repeats but may differ in a detail not shown here. Equal entries are not always repeated. Where two headings read alike, the source gives them in different places."}
{"substance": "Poly(oxy-1,2-ethanediyl), α-hydro-ω-hydroxy-, 15,15′-diester with N-acetyl-L-isoleucyl-L-cysteinyl-L-valyl-1-methyl-L-tryptophyl-L-glutaminyl-L-α-aspartyl-L-tryptophylglycyl-L-alanyl-L-histidyl-L-arginyl-L-cysteinyl-L-threonyl-2-[2-(2-aminoethoxy) ethoxy]acetyl-N^6-carboxy-L-lysinamide cyclic (2->12)-(disulfide) [pegcetacoplan]", "values": [{"measurement": "reduction of GA lesion growth versus sham", "setting": "[1]; EOM, months 18-24, p=0.0007", "value": 25, "unit": "%"}, {"measurement": "reduction in GA lesion growth from baseline compared to sham", "setting": "[1]; EOM, p 0.0002 nominal", "value": 18, "unit": "%"}, {"measurement": "reduction in lesion growth in the study eye versus the untreated study eye, after adjusting for sham", "setting": "[1]; every other month", "value": 15, "unit": "%"}, {"measurement": "reduction in lesion growth in the study eye versus the untreated study eye", "setting": "[1]; every other month, p=0.1274", "value": 7, "unit": "%"}, {"measurement": "reduction in lesion growth in the study eye versus the untreated study eye, after adjusting for sham", "setting": "[1]; monthly", "value": 26, "unit": "%"}, {"measurement": "reduction in lesion growth in the study eye versus the untreated study eye", "setting": "[1]; monthly, p<0.0001", "value": 19, "unit": "%"}, {"measurement": "reduction in GA lesion growth versus sham", "setting": "[1]; distance >250 microns, every other month, p=0.1203", "value": 15, "unit": "%"}, {"measurement": "reduction in GA lesion growth versus sham", "setting": "[1]; distance ≤250 microns, monthly, p=0.0002", "value": 22, "unit": "%"}, {"measurement": "percentage reduction versus sham pooled", "setting": "[1]; every other month, >50 microns, p=0.0430", "value": 17, "unit": "%"}, {"measurement": "percentage reduction versus sham pooled", "setting": "[1]; every other month, >100 microns, p=0.0338", "value": 18, "unit": "%"}, {"measurement": "percentage reduction versus sham pooled", "setting": "[1]; every other month, >150 microns, p=0.0575", "value": 17, "unit": "%"}, {"measurement": "percentage reduction versus sham pooled", "setting": "[1]; every other month, >200 microns, p=0.1002", "value": 15, "unit": "%"}, {"measurement": "reduction in GA lesion growth vs pooled sham", "setting": "[1]; every other month, month 12, p=0.0052", "value": 16, "unit": "%"}, {"measurement": "reduction in extrafoveal GA lesion growth vs pooled sham", "setting": "[1]; every other month, month 18, p 0.0422", "value": 17, "unit": "%"}, {"measurement": "reduction in GA lesion growth, covariate-adjusted post-hoc analysis", "setting": "[1]; every other month, month 18, p=0.0002", "value": 18, "unit": "%"}, {"measurement": "reduction in foveal GA lesion growth, covariate-adjusted", "setting": "[1]; every other month, month 18, p=0.0008", "value": 19, "unit": "%"}, {"measurement": "reduction in GA lesion growth vs pooled sham", "setting": "[1]; every other month, month 18, p=0.0018 nominal", "value": 16, "unit": "%"}, {"measurement": "reduction in foveal GA lesion growth vs pooled sham", "setting": "[1]; every other month, month 18, p=0.0020", "value": 19, "unit": "%"}, {"measurement": "reduction in extrafoveal GA lesion growth, covariate-adjusted", "setting": "[1]; every other month, month 18, p=0.0673", "value": 15, "unit": "%"}, {"measurement": "percentage reduction versus sham pooled", "setting": "[1]; monthly, >100 microns, p<0.0001", "value": 34, "unit": "%"}, {"measurement": "percentage reduction versus sham pooled", "setting": "[1]; monthly, >150 microns, p<0.0001", "value": 34, "unit": "%"}, {"measurement": "percentage reduction versus sham pooled", "setting": "[1]; monthly, >200 microns, p<0.0001", "value": 34, "unit": "%"}, {"measurement": "percentage reduction versus sham pooled", "setting": "[1]; monthly, distance to foveal center point >50 microns, p<0.0001", "value": 33, "unit": "%"}, {"measurement": "reduction in GA lesion growth vs pooled sham", "setting": "[1]; monthly, month 12, p=0.0003", "value": 22, "unit": "%"}, {"measurement": "reduction in GA lesion growth, covariate-adjusted post-hoc analysis", "setting": "[1]; monthly, month 18, p<0.0001", "value": 26, "unit": "%"}, {"measurement": "reduction in extrafoveal GA lesion growth vs pooled sham", "setting": "[1]; monthly, month 18, p<0.0001", "value": 33, "unit": "%"}, {"measurement": "reduction in extrafoveal GA lesion growth, covariate-adjusted", "setting": "[1]; monthly, month 18, p<0.0001", "value": 33, "unit": "%"}, {"measurement": "reduction in GA lesion growth vs pooled sham", "setting": "[1]; monthly, month 18, p<0.0001 nominal", "value": 22, "unit": "%"}, {"measurement": "reduction in foveal GA lesion growth, covariate-adjusted", "setting": "[1]; monthly, month 18, p=0.0044", "value": 19, "unit": "%"}, {"measurement": "reduction in foveal GA lesion growth vs pooled sham", "setting": "[1]; monthly, month 18, p=0.0105", "value": 18, "unit": "%"}, {"measurement": "reduction of GA lesion growth versus sham", "setting": "[1]; monthly, months 18-24, p=0.0080", "value": 24, "unit": "%"}, {"measurement": "reduction in GA lesion growth from baseline compared to sham", "setting": "[1]; monthly, p<0.0001 nominal", "value": 22, "unit": "%"}, {"measurement": "decrease of patients in Q4 (fast progressors), relative to sham", "setting": "[1]; [3]", "value": 43, "unit": "%"}, {"measurement": "increase of patients in Q1 (slow progressors), relative to sham", "setting": "[1]; [3]", "value": 83, "unit": "%"}, {"measurement": "reduction in change from baseline in square root GA lesion size vs sham", "setting": "patients with GA; every other month, p=0.067", "value": 20, "unit": "%"}, {"measurement": "reduction in change from baseline in square root GA lesion size vs sham", "setting": "patients with GA; monthly, p=0.008", "value": 29, "unit": "%"}, {"measurement": "All TEAEs, Total events, M", "setting": "[2]; 12 months", "value": 600}, {"measurement": "All TEAEs, patients", "setting": "[2]; 12 months", "value": "155 (74.5%) n (%)"}, {"measurement": "Cases of MNV (FA) detected by reading center but not reported by Investigator as AE", "setting": "[2]; 12 months", "value": 1}, {"measurement": "Non-ocular TEAEs, Patients", "setting": "[2]; 12 months", "value": "110 (52.9%) n (%)"}, {"measurement": "Non-ocular TEAEs, events M", "setting": "[2]; 12 months", "value": 339}, {"measurement": "Ocular TEAE in study eye Vitreous floaters, events M", "setting": "[2]; 12 months", "value": 5}, {"measurement": "Ocular TEAE in study eye Vitreous floaters, patients", "setting": "[2]; 12 months", "value": "4 (1.9%) n (%)"}, {"measurement": "Ocular TEAEs in study eye, Patients", "setting": "[2]; 12 months", "value": "91 (43.8%) n (%) and 91 (43.8) n (%)"}, {"measurement": "Ocular TEAEs in study eye, events M", "setting": "[2]; 12 months", "value": 162}, {"measurement": "Serious ocular TEAE Dry AMD, patients", "setting": "[2]; 12 months", "value": "0 n (%)"}, {"measurement": "Serious ocular TEAE Endophthalmitis, patients", "setting": "[2]; 12 months", "value": "0 n (%)"}, {"measurement": "Serious ocular TEAE Macular hole, patients", "setting": "[2]; 12 months", "value": "0 n (%)"}, {"measurement": "Serious ocular TEAE Optic ischemic neuropathy, patients", "setting": "[2]; 12 months", "value": "0 n (%)"}, {"measurement": "Serious ocular TEAE Papilledema, patients", "setting": "[2]; 12 months", "value": "0 n (%)"}, {"measurement": "Serious ocular TEAE Retinal detachment, patients", "setting": "[2]; 12 months", "value": "0 n (%)"}, {"measurement": "Serious ocular TEAE Vitritis, patients", "setting": "[2]; 12 months", "value": "0 n (%)"}, {"measurement": "Serious ocular TEAEs in the study eye, patients", "setting": "[2]; 12 months", "value": "0 n (%)"}, {"measurement": "Sum of investigator-determined eAMD and reading center cases not reported by investigators", "setting": "[2]; 12 months", "value": "(3.8%)"}, {"measurement": "Sum of investigator-determined eAMD and reading center cases not reported by investigators", "setting": "[2]; 12 months, count", "value": 8}, {"measurement": "All TEAEs, Total events, M", "setting": "[2]; 18 months", "value": 835}, {"measurement": "All TEAEs, patients", "setting": "[2]; 18 months", "value": "171 (82.2%) n (%)"}, {"measurement": "Non-ocular TEAEs, M", "setting": "[2]; 18 months", "value": 495}, {"measurement": "Non-ocular TEAEs, Patients", "setting": "[2]; 18 months", "value": "132 (63.5%) n (%)"}, {"measurement": "Ocular TEAEs in study eye, M", "setting": "[2]; 18 months", "value": 216}, {"measurement": "Ocular TEAEs in study eye, Patients", "setting": "[2]; 18 months", "value": "99 (47.6%) n (%)"}, {"measurement": "Discontinued study prior to Month 12, reason Adverse Event", "setting": "[2]; N=208", "value": "4 (1.9%) n (%)"}, {"measurement": "Discontinued study prior to Month 12, reason Death", "setting": "[2]; N=208", "value": "0 n (%)"}, {"measurement": "Discontinued study prior to Month 18, reason Adverse event", "setting": "[2]; N=208", "value": "4 (1.9%) n (%)"}, {"measurement": "Discontinued study prior to Month 18, reason Death", "setting": "[2]; N=208", "value": "4 (1.9%) n (%)"}, {"measurement": "Patients with new onset fellow eye eAMD", "setting": "[2]; through 18 months, 166 patients without baseline fellow eye CNV", "value": "8 (4.8%) n (%)"}]}
